# Target: T1, collagenase obtained from a culture of human synovial fibroblasts (Homo sapiens, UniProt P03956)
# T1 construct: endogenous in cells; host or cells: human synovial fibroblast culture (conditioned medium)
# T1 sequence (P03956 100-469): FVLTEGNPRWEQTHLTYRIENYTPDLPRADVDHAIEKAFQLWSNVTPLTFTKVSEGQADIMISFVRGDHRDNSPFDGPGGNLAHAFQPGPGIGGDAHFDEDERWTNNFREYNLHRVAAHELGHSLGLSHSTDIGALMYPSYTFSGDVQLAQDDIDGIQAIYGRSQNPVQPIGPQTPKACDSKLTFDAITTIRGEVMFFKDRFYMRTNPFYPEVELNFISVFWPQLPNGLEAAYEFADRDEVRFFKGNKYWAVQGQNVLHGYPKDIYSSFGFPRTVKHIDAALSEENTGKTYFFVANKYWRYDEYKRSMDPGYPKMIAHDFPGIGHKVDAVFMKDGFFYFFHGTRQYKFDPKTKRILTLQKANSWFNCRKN
# Assay: in vitro collagenase inhibiting activity, microtitre plate assay with 14C-acetylated collagen type I from rat tail tendons as substrate
# Format: biochemical
# Settings: trypsin-activated pro-collagenase; 14C-acetylated collagen type I substrate; concentration reducing substrate cleavage and solubilization to 50%
row,Compound,IC50
1,"CN1C(=O)N(CC(C(=O)NO)[C@@H](CC2CC2)C(=O)N2CCC(O)CC2)C(=O)C1(C)C (single isomer, unassigned) [Example 2, 1-[3-cyclopropyl-2-(R)-[1(R or S)-(hydroxycarbamoyl)-2-(3,4,4-trimethyl-2,5-dioxo-1-imidazolidinyl)ethyl]propionyl]-4-piperidinol]",18 nM
2,"CN1C(=O)N(CC(C(=O)NO)[C@@H](CC2CCC2)C(=O)N2CCCCC2)C(=O)C1(C)C (single isomer, unassigned) [Example 4, 1-[3-cyclobutyl-2(R)-[1(R or S)-(hydroxycarbamoyl)-2-(3,4,4-trimethyl-2,5-dioxo-1-imidazolidinyl)ethyl]propionyl]piperidine]",7 nM
3,"CN1C(=O)N(CC(C(=O)NO)[C@@H](CC2CCC2)C(=O)N2CCC(O)CC2)C(=O)C1(C)C (single isomer, unassigned) [Example 5, 1-[3-cyclobutyl-2(R)-[1(R or S)-(hydroxycarbamoyl)-2-(3,4,4-trimethyl-2,5-dioxo-1-imidazolidinyl)ethyl]propionyl]-4-piperidinol]",2.5 nM
4,"CN1C(=O)N(CC(C(=O)NO)[C@@H](CC2CCCC2)C(=O)N2CCC(O)CC2)C(=O)C1(C)C (single isomer, unassigned) [Example 7, 1-[3-cyclopentyl-2[(R)-[1(R or S)-(hydroxycarbamoyl)-2-(3,4,4-trimethyl-2,5-dioxo-1imidazolidinyl)ethyl]propionyl]-4-piperidinol]",6.5 nM
5,"CN1C(=O)N(CC(C(=O)NO)[C@@H](CC2CCCC2)C(=O)N2CCOCC2)C(=O)C1(C)C (single isomer, unassigned) [Example 16, 4-[3-cyclopentyl-2(R)-[1(R or S)-(hydroxycarbamoyl)-2-(3,4,4-trimethyl-2,5-dioxo-1-imidazolidinyl)ethyl]propionyl]morpholine]",4.1 nM
6,"CNC(=O)[C@H]1N(C(=O)[C@H](CC2CCCC2)C(CN2C(=O)N(C)C(C)(C)C2=O)C(=O)NO)CSC1(C)C (single isomer, unassigned) [Example 17, 3-[3-cyclopentyl-2(R)-[1(R or S)-(hydroxycarbamoyl)-2-(3,4,4-trimethyl-2,5-dioxo-1imidazolidinyl)ethyl]propionyl]-N,5,5-trimethyl-4(R)-thiazolidinecarboxamide]",2.35 nM
7,"CN1C(=O)N(CC(C(=O)NO)[C@@H](CC2CCC2)C(=O)N2CCCCCCC2)C(=O)C1(C)C (single isomer, unassigned) [Example 23, 1-[3-cyclobutyl-2(R)-[1(R or S)-(hydroxycarbamoyl)-2-(3,4,4-trimethyl-2,5-dioxo-1-imidazolidinyl)ethyl]propionyl]octahydroazocine]",34 nM

# From patent US5614625A, “Hydroxamic acid derivatives with tricyclic substitution” (Hoffmann-La Roche Inc., priority 1994, dated 1997)
